Key:
Format in all cases: biochemical
Human Factor XIIa = Human Factor XIIa (Homo sapiens (Human), UniProt P00748); experiment: Determination of FXIIa inhibition (fluorogenic substrate H-DPro-Phe-Arg-AFC, IC50 assay); conditions: substrate H-DPro-Phe-Arg-AFC at Km, 25° C.; for IC50: class scale A-G
Procedure, shortened: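 IC50 derived from % remaining activity, taken as the linear fluorescence rate over a 5 min read at 25° C. Substrate H-DPro-Phe-Arg-AFC was used at its Km (Michaelis-Menten) with human FXIIa and serial compound dilutions, 25° C.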

KLK1 = KLK1 (Homo sapiens (Human), UniProt P06870); experiment: Determination of related protease inhibition: KLK1 (fluorogenic substrate at Km); conditions: 25° C.
Sequence of KLK1 (P06870 25-262): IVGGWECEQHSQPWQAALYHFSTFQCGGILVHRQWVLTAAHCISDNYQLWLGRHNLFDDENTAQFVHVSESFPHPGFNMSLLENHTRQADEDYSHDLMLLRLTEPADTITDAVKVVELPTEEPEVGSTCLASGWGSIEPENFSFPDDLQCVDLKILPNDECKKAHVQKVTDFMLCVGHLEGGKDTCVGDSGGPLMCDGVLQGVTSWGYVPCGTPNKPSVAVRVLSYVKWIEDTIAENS
Protocol: (§1) Determination of Related Protease Inhibition
(§2) In vitro inhibition of related proteases was determined using an ([…] assay based on standard literature methods (see e.g. Shori et al., Biochem. Pharmacol., 1992, 43, 1209; Bouckaert et al., European Journal of Medicinal Chemistry 110 (2016) 181). Human serine protease enzymes Plasma Kallikrein, KLK1, FXa, Plasmin, Thrombin and Trypsin were assayed for enzymatic activity using an appropriate fluorogenic substrate at Km concentration, FXIa at fixed substrate concentration of 100 μM, and various concentrations of the test compound. Protease activity was measured by monitoring the accumulation of liberated fluorescence from the substrate over […]. The linear rate of fluorescence increase per minute was expressed as percentage (%) activity. IC50 values were calculated as the concentration of inhibitor giving 50% inhibition of the uninhibited enzyme activity (100%).

FXa = FXa (Homo sapiens (Human), UniProt P00742); experiment: Determination of related protease inhibition: FXa (fluorogenic substrate at Km); conditions: 25° C.
Sequence of FXa (P00742 235-488): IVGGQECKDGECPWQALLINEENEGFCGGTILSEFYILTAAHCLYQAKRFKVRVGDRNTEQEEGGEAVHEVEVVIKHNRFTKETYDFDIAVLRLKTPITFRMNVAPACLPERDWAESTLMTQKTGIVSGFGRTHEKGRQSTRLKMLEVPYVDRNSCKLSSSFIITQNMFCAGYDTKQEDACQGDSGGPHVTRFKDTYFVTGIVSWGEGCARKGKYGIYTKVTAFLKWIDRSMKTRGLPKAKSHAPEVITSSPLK
Sequence of FXa (P00742 41-179 partner): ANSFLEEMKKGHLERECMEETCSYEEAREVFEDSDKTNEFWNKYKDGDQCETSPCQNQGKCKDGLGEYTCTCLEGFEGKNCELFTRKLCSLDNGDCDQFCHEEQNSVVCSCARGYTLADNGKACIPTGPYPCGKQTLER
Protocol: as §1, §2

Plasma Kallikrein = Plasma Kallikrein (Homo sapiens (Human), UniProt P03952); experiment: Determination of related protease inhibition: Plasma Kallikrein (fluorogenic substrate at Km); conditions: 25° C., read-out: IC50 (human PKal)
Sequence of Plasma Kallikrein (P03952 391-638): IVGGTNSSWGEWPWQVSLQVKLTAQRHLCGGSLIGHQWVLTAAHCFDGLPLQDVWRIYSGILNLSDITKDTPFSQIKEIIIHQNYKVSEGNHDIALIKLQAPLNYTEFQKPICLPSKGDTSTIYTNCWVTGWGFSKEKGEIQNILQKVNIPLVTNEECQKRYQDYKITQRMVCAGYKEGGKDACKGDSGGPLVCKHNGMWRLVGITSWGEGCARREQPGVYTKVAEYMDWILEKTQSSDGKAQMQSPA
Sequence of Plasma Kallikrein (P03952 20-390 partner): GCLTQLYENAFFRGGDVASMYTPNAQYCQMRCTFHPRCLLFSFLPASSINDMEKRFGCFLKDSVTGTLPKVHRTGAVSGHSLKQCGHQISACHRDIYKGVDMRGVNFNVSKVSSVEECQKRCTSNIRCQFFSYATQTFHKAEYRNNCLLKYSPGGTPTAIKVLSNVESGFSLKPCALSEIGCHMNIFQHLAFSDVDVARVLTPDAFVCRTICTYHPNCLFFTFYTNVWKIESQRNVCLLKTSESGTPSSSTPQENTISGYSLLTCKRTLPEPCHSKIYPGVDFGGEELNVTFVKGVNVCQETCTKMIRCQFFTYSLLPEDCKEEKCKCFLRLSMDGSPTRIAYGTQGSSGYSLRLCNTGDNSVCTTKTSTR
Procedure, shortened: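 Fluorescence release from a Km-level fluorogenic substrate, read for 5 min at 25 °C, gave the linear rate per minute for each inhibitor concentration. Rates were converted to % of uninhibited human enzyme activity; IC50 = inhibitor concentration producing 50% inhibition.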

Sequence of Human Factor XIIa (P00748 373-615): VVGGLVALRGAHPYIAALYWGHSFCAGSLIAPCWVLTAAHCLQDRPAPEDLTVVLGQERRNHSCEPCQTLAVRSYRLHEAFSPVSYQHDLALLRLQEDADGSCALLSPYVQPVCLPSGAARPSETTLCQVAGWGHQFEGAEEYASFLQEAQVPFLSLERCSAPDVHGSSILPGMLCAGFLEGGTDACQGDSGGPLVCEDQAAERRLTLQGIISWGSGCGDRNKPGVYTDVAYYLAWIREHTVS

IC50 (Human Factor XIIa)	IC50 (KLK1)	IC50 (FXa)	IC50 (Plasma Kallikrein)	Compound	Human FXIIa IC50 (nM): test compounds that did not achieve 50% inhibition (Human Factor XIIa; class scale H1-H3 for compounds that did not achieve 50% inhibition)
10 to 40 µM	3 to 10 µM	> 40 µM	> 40 µM	CC1c2nnc(C(F)(F)F)n2CCN1c1ccc(CNc2cccc3c(N)nccc23)cn1 (single isomer, unassigned) [Example 1294, (R*)-N5-((6-(8-methyl-3-(trifluoromethyl)-5,6-dihydro-[1,2,4]triazolo[4,3-a]pyrazin-7(8H)-yl)pyridin-3-yl)methyl)isoquinoline-1,5-diamine]	–
0.01 to 0.1 µM	3 to 10 µM	> 40 µM	10 to 40 µM	CC1c2nnc(C(F)(F)F)n2CCN1c1ccc(CNc2cccc3c(N)nccc23)cn1 (single isomer, unassigned) [Example 1295, (S*)-N5-((6-(8-methyl-3-(trifluoromethyl)-5,6-dihydro-[1,2,4]triazolo[4,3-a]pyrazin-7(8H)-yl)pyridin-3-yl)methyl)isoquinoline-1,5-diamine]	–
0.3 to 1 µM	3 to 10 µM	> 40 µM	–	Cc1nc(N2CCn3c(nnc3C(F)(F)F)C2)ccc1CNc1cccc2c(N)nccc12 [Example 1284, N5-((2-methyl-6-(3-(trifluoromethyl)-5,6-dihydro-[1,2,4]triazolo[4,3-a]pyrazin-7(8H)-yl)pyridin-3-yl)methyl)isoquinoline-1,5-diamine]	–
0.3 to 1 µM	3 to 10 µM	> 40 µM	–	CC1c2nnc(C(F)(F)F)n2CCN1c1ccc(CNc2cccc3c(N)nccc23)cn1 (stereo not shown) [Example 1285, N5-((6-(8-methyl-3-(trifluoromethyl)-5,6-dihydro-[1,2,4]triazolo[4,3-a]pyrazin-7(8H)-yl)pyridin-3-yl)methyl)isoquinoline-1,5-diamine]	–
0.3 to 1 µM	1 to 3 µM	> 40 µM	–	Cn1ncc2c1CCN(c1ccc(CNc3cccc4c(N)nccc34)cn1)C2 [Example 1286, N5-((6-(1-methyl-1,4,6,7-tetrahydro-5H-pyrazolo[4,3-c]pyridin-5-yl)pyridin-3-yl)methyl)isoquinoline-1,5-diamine]	–
1 to 3 µM	1 to 3 µM	> 40 µM	–	CC1CN(c2ccc(CNc3cccc4c(N)nccc34)cn2)Cc2nnc(C(F)(F)F)n21 (stereo not shown) [Example 1287, N5-((6-(5-methyl-3-(trifluoromethyl)-5,6-dihydro-[1,2,4]triazolo[4,3-a]pyrazin-7(8H)-yl)pyridin-3-yl)methyl)isoquinoline-1,5-diamine]	–
0.01 to 0.1 µM	> 4 µM	–	–	Cc1cc(N2CCn3c(nnc3C(F)(F)F)C2)cnc1CNc1cccc2c(N)nccc12 [Example 9005, N5-((3-Methyl-5-(3-(trifluoromethyl)-5,6-dihydro-[1,2,4]triazolo[4,3-a]pyrazin-7(8H)-yl)pyridin-2-yl)methyl)isoquinoline-1,5-diamine]	–

More lines, now with the values behind:

Compound	IC50 (Human Factor XIIa)	IC50 (KLK1)	IC50 (FXa)	IC50 (Plasma Kallikrein)	Human FXIIa IC50 (nM): test compounds that did not achieve 50% inhibition (Human Factor XIIa; class scale H1-H3 for compounds that did not achieve 50% inhibition)
Nc1nccc2c(N3CCCC3c3ccc(N4CCn5c(nnc5C(F)(F)F)C4)nc3)cccc12 (racemic) [Example 10002, 5-(2-(6-(3-(Trifluoromethyl)-5,6-dihydro-[1,2,4]triazolo[4,3-a]pyrazin-7(8H)-yl)pyridin-3-yl)pyrrolidin-1-yl)isoquinolin-1-amine]	1 to 3 µM	10 to 40 µM	> 40 µM	–	–
CC1CN(c2ccc(CNc3cccc4c(N)nccc34)cn2)Cc2nnc(C(F)(F)F)n21 (single isomer, unassigned) [Example 1296, (R*)-N5-((6-(5-methyl-3-(trifluoromethyl)-5,6-dihydro-[1,2,4]triazolo[4,3-a]pyrazin-7(8H)-yl)468yridine-3-yl)methyl)isoquinoline-1,5-diamine]	1 to 3 µM	3 to 10 µM	> 40 µM	10 to 40 µM	–
CC1CN(c2ccc(CNc3cccc4c(N)nccc34)cn2)Cc2nnc(C(F)(F)F)n21 (single isomer, unassigned) [Example 1297, (S*)-N5-((6-(5-methyl-3-(trifluoromethyl)-5,6-dihydro-[1,2,4]triazolo[4,3-a]pyrazin-7(8H)-yl)pyridin-3-yl)methyl)isoquinoline-1,5-diamine]	1 to 3 µM	1 to 3 µM	> 40 µM	> 40 µM	–
Nc1nccc2c(N3CCCC3c3ccc(N4CCn5c(nnc5C(F)(F)F)C4)nc3)cccc12 (single isomer, unassigned) [Example 10003, (S*)-5-(2-(6-(3-(trifluoromethyl)-5,6-dihydro-[1,2,4]triazolo[4,3-a]pyrazin-7(8H)-yl)pyridin-3-yl)pyrrolidin-1-yl)isoquinolin-1-amine]	3 to 10 µM	> 40 µM	> 40 µM	–	–
Nc1nccc2c(N3CCCC3c3ccc(N4CCn5c(nnc5C(F)(F)F)C4)nc3)cccc12 (single isomer, unassigned) [Example 10004, (R*)-5-(2-(6-(3-(trifluoromethyl)-5,6-dihydro-[1,2,4]triazolo[4,3-a]pyrazin-7(8H)-yl)pyridin-3-yl)pyrrolidin-1-yl)isoquinolin-1-amine]	0.3 to 1 µM	10 to 40 µM	> 40 µM	–	–
FC(F)(F)c1nnc2n1CCN(c1ccc(CNc3ccn4ccnc4c3)cn1)C2 [Example 1288, N-((6-(3-(trifluoromethyl)-5,6-dihydro-[1,2,4]triazolo[4,3-a]pyrazin-7(8H)-yl)pyridin-3-yl)methyl)imidazo[1,2-a]pyridin-7-amine]	–	> 100 µM	> 40 µM	–	–
FC(F)(F)c1nnc2n1CCN(c1ccc(CNc3cnc4[nH]cc(Cl)c4c3)cn1)C2 [Example 1289, 3-chloro-N-((6-(3-(trifluoromethyl)-5,6-dihydro-[1,2,4]triazolo[4,3-a]pyrazin-7(8H)-yl)pyridin-3-yl)methyl)-1H-pyrrolo[2,3-b]pyridin-5-amine]	–	> 40 µM	> 40 µM	–	–
CC(C)Oc1cc(NCc2ccc(N3CCn4c(nnc4C(F)(F)F)C3)nc2)ccn1 [Example 1290, 2-isopropoxy-N-((6-(3-(trifluoromethyl)-5,6-dihydro-[1,2,4]triazolo[4,3-a]pyrazin-7(8H)-yl)pyridin-3-yl)methyl)pyridin-4-amine]	–	> 40 µM	> 40 µM	–	–
CC(C)(O)c1cn(-c2ccc(CNc3cccc4c(N)nccc34)cn2)nn1 [Example 1291, 2-(1-(5-(((1-aminoisoquinolin-5-yl)amino)methyl)pyridin-2-yl)-1H-1,2,3-triazol-4-yl)propan-2-ol]	3 to 10 µM	10 to 40 µM	> 40 µM	–	–
N#Cc1cc(NCc2ccc(N3CCn4c(nnc4C(F)(F)F)C3)nc2)c2cc(Cl)[nH]c2n1 [Example 1292]	–	> 40 µM	> 40 µM	–	H1 (>20% inhibition @ 40 μM)
Cc1cc(NCc2ccc(N3CCn4c(nnc4C(F)(F)F)C3)nc2)c2cc(Cl)[nH]c2n1 [Example 1293, 2-chloro-6-methyl-N-((6-(3-(trifluoromethyl)-5,6-dihydro-[1,2,4]triazolo[4,3-a]pyrazin-7(8H)-yl)pyridin-3-yl)methyl)-1H-pyrrolo[2,3-b]pyridin-4-amine]	–	> 40 µM	> 40 µM	–	–
Nc1nccc2c(NCc3ccc(N4CCn5c(nnc5C(F)(F)F)C4)nn3)cccc12 [Example 9004, N5-((6-(3-(Trifluoromethyl)-5,6-dihydro-[1,2,4]triazolo[4,3-a]pyrazin-7(8H)-yl)pyridazin-3-yl)methyl)isoquinoline-1,5-diamine]	0.3 to 1 µM	3 to 10 µM	–	–	–

— patent US20240059691A1 (KALVISTA PHARMACEUTICALS LIMITED, priority 2020, published 2024)
